Assays:
[1] = 500 mg magnesium daily, 8 weeks, cited from earlier work
MDA, SOD, CAT, GSHPx = assay: Brain antioxidant status in caffeine-induced wakefulness mice; assay type: in vivo; conditions: for CAT / MDA / SOD / GSHPx: caffeine followed by saline (C) or test article (20 mg theanine/kg), means and standard deviations
Method: Animals were anesthetized with urethane ([…], i.p., Sigma U2500). Body temperature was maintained between 36.5 and 37° C. with homeothermic blanket. Mice were stabilized under a stereotaxic frame (World Precision Instruments, Berlin; Germany) and an incision was made on the skin along the anterior/posterior line of the skull. The left […] was removed gently with a dental drill (Marothon-3; Korea). Two Ag-AgCl sphere electrodes were placed over the left hemisphere with the reference electrode attached on the pinna. […] Brains were rapidly removed, frozen on dry ice and stored at -80° C. until analyses could be performed. Biochemical and Oxidative Stress Markers-Serum melatonin, serotonin, and dopamine were measured using ELISA kits. Brain levels of malondialdehyde (MDA) were measured by HPLC. Brain activities of superoxide dismutase (SOD), catalase (CAT) and glutathione peroxidase (GSHPx) were measured using ELISA kits for each analyte.

[2] = test system: brain serotonin, dopamine and melatonin; assay: Brain neurotransmitter levels by ELISA in caffeine-induced wakefulness mice; assay type: in vivo; conditions: for Dopamine / Melatonin / Serotonin: brain, caffeine followed by saline (C) or test article (20 mg theanine/kg), ELISA, means and standard deviations
[3] = Nathan [17]; cited from earlier work
[4] = test system: Bax, Bcl-2, Caspase-3, eNOS, iNOS; assay: Western blot of brain cell survival indicators in caffeine-induced wakefulness mice; conditions: caffeine-induced wake mouse; result in words; listed as Theanine
sleep cycle = conditions: Jang et al. [11], cited from earlier work
[5] = test system: stimulatory action of caffeine; conditions: rats, EEG, Kakuda et al. [13]; cited from earlier work
[6] = test system: pentobarbital-induced sleep; assay: Pentobarbital-induced sleep test mouse model; assay type: in vivo, mice; conditions: for Duration of sleep / Sleep latency period: pentobarbital 42 mg/kg, test article 20 mg theanine/kg per os 45 min before, result in words
Method: Subsequently, pentobarbital was administered intraperitoneally to induce a hypnotic state that promoted sleep. The effects on sleep of the test agents were monitored.
Pentobarbital-induced sleep was performed according to published methods with slight modifications. Mice were fasted for 24 h prior to the experiment. Each test article was dissolved or suspended in physiological saline and then was administered per os. The groups were administered doses of 20 mg/kg theanine, Mg-theanate #1 (20 mg theanine/kg), and Mg-theanate #2 (20 mg theanine/kg), respectively. Forty-five minutes later, a hypnotic dose of pentobarbital (42 mg/kg) was injected into the left side of the abdomen. After injection, the mice were placed in individual cages and subjected to measurements of sleep latency and duration. Sleep latency was defined as the period between pentobarbital injection and the loss of righting reflex (sleep onset), and sleep duration denoted the time elapsed between loss of the righting reflex and recovery.
Statistical Analyses—Data are shown as mean±SEM. Sample size was calculated based on a power of 85% and a p-value of 0.05. Given that assumption, a sample size of seven per treatment was calculated. The data were analyzed using the GLM procedure of SAS (SAS Institute: SAS User's Guide: Statistics). The treatments were compared using ANOVA and Student's unpaired t-test; P<0.05 was considered statistically significant.

[7] = test system: brain waves (spike amplitude / spike frequency); assay: Electrocorticography (ECoG) of brain electrical activity in caffeine-induced wakefulness mice; assay type: in vivo; conditions: caffeine-induced wake mouse; electrical activity over 120 minutes; result in words; listed as Theanine
Method: Animals were anesthetized with urethane ([…], i.p., Sigma U2500). Body temperature was maintained between 36.5 and 37° C. with homeothermic blanket. Mice were stabilized under a stereotaxic frame (World Precision Instruments, Berlin; Germany) and an incision was made on the skin along the anterior/posterior line of the skull. The left […] was removed gently with a dental drill (Marothon-3; Korea). Two Ag—AgCl sphere electrodes were placed over the left hemisphere with the reference electrode attached on the pinna.
Brains were rapidly removed, frozen on dry ice and stored at −80° C. until analyses could be performed.

[8] = test system: caffeine-induced wakefulness mice; assay: Caffeine-induced wakefulness mouse model: sleep latency, sleep duration, number falling asleep; assay type: in vivo; conditions: caffeine-induced wake mouse; caffeine alone or + test article (20 mg theanine/kg)
Method: Animals and Experimental design: Seven male BALB/c mice per treatment arm (age: 8 weeks, weight: […]) were housed in a controlled environment with a 12:12-h light-dark cycle at 22° C. and were provided with mice chow and water ad libitum. All experiments were conducted under the National Institutes of Health's Guidelines for the Care and Use of Laboratory Animals and approved by the Ethics Committee of the Medipol University.
Drugs and materials: Study product was provided by Nutrition21 LLC (Mg-Theanate #1=lot AA209-122-20, Mg-Theanate #2=lot BLS-DN 13). […] The concentration of each drug solution was adjusted so that the volume injected was constant at 1.0 ml/kg BW. All drug solutions were prepared fresh daily, and were administered intraperitoneally (i.p.). […]

[9] = Ates et al. [2]; comparison in words; cited from earlier work
wakefulness = conditions: 7.5 mg/kg i.p.; Kwon et al., 2006; cited from earlier work
[10] = caffeine-induced wake mouse model, 20 mg/kg
[11] = caffeine-induced wake mouse, result in words

Row | Compound | CAT (MDA, SOD, CAT, GSHPx) | MDA (MDA, SOD, CAT, GSHPx) | SOD (MDA, SOD, CAT, GSHPx) | Dopamine [2] | Melatonin [2] | Serotonin [2] | GSHPx (MDA, SOD, CAT, GSHPx) | Absorption (and bioavailability) of magnesium [9] | also measured
1 | [Mg+2] [magnesium] | – | – | – | – | – | – | – | – | Concentration of serum renin vs placebo ([1]; P<0.001): statistically significant increases; Sleep time vs placebo ([1]; P=0.002): statistically significant increases; Concentration of melatonin vs placebo ([1]; P=0.007): statistically significant increases; Sleep efficiency vs placebo ([1]; P=0.03): statistically significant increases; Early morning wakening time [1]: shortened; Insomnia Severity Index scores ([1]; subjective measure): improved
2 | CCNC(=O)CCC(N)C(=O)O [CMgT1, magnesium di-L-theanate] | 36.47 + 1.27b IU/mg protein | 2.24 + 0.14c nmol/g | 131.14 + 9.86b IU/mg protein | 832.71 + 74.50bc ng/g | 0.80 + 0.03b pg/g | 762.29 + 25.34b ng/g | – | – | –
3 | CCNC(=O)CCC(N)C(=O)O [CMgT2, magnesium di-L-theanate] | 35.96 + 2.52b IU/mg protein | 2.24 + 0.09c nmol/g | 137.29 + 5.99b IU/mg protein | 895.57 + 61.93ab ng/g | 0.85 + 0.04b pg/g | 751.43 + 30.34b ng/g | 19.11 + 2.39ab IU/mg protein | – | –
4 | CCNC(=O)CCC(N)C(=O)O (stereo not shown) [CT, 2-amino-4-(ethylcarbamoyl)-butyric acid, reference compound] | 29.51 + 2.06c IU/mg protein | 2.46 + 0.17b nmol/g | 117.14 + 13.89c IU/mg protein | 779.00 + 77.73c ng/g | 0.69 + 0.08c pg/g | 655.43 + 35.46c ng/g | 15.56 + 7.94ab IU/mg protein | – | Time to cross the blood-brain barrier after oral administration [3]: ≤ 30 min; Brain cell survival (Bax, Bcl-2, Caspase-3, eNOS, and iNOS, indicators of cell damage) [4]: + Theanine: Administration of theanine caused trends toward normalization of these; Levels of protective enzymes (SOD, CAT, GSHPx) (MDA, SOD, CAT, GSHPx; caffeine-induced wake mouse, result in words, listed as Theanine): decreased, but the changes were not as great as those shown by caffeine treatment.; REM time during the sleep cycle (sleep cycle; [10]): increases; Sleep latency (sleep cycle; [10]): significantly decrease; Sleep time (sleep cycle; [10]): increase; NREM time, chronic administration (sleep cycle; chronic administration): significant increase; NREM time, single doses (sleep cycle; single doses): little effect; Intravenous dose that could inhibit the stimulatory action of caffeine [5]: higher than 0.78 mg/kg; Animals that failed to sleep during the 10-minute period following pentobarbital administration ([6]; 20 mg/kg per os): About 62%; Duration of sleep [6]: significantly increased; Sleep latency period [6]: significantly reduced; Duration of sleep ([6]; listed as L-theanine): significantly increased; Sleep latency period ([6]; listed as L-theanine): significantly decreased; Amplitude of brain waves [7]: + Theanine: Within about 30 minutes, the amplitude of brain waves increased significantly; Spike frequency of electrical activity in the brain [7]: significantly reduced, as compared to caffeine-treated animals.; Number of animals falling asleep (share of the group that fell asleep) [8]: + Theanine: 62.5% of the group fell asleep; Sleep latency period [8]: + Theanine: The sleep latency period increased from about 1 to about 1.5 minute, a minutes
5 | magnesium acetyl taurate | – | – | – | – | – | – | – | significantly better absorption and bioavailability than magnesium glycinate | –
6 | Cn1c(=O)c2c(ncn2C)n(C)c1=O [C, Caffeine, reference compound] | 24.40 + 1.62a IU/mg protein | – | 89.00 + 5.16a IU/mg protein | 584.86 + 72.47d ng/g | 0.59 + 0.05a pg/g | 571.00 + 42.14d ng/g | 12.07 + 2.89b IU/mg protein | – | Time for which wakefulness is maintained (wakefulness): at least 2 h; Level of MDA (indicator of oxidative stress) (MDA, SOD, CAT, GSHPx; [11]): Caffeine: The level of MDA (an indicator of oxidative stress) was significantly increased,; Number of animals falling asleep (share of the group that fell asleep) [8]: Caffeine: only 50% of the group fell asleep; Sleep latency period [8]: Caffeine: The sleep latency period doubled to about 2 minutes in caffeine-treated animals.; Neurotransmitter levels (brain serotonin, dopamine, and melatonin) [2, 11]: Caffeine: Levels of all three neurotransmitters were significantly reduced, reflecting the
7 | O=C([O-])CC(O)C(=O)[O-].[Mg+2] (stereo not shown) [magnesium malate] | – | – | – | – | – | – | – | more poorly absorbed than certain magnesium complexes with amino acids | –
8 | magnesium citrate | – | – | – | – | – | – | – | more poorly absorbed than certain magnesium complexes with amino acids | –

From patent US12329774B2, “Method and composition for enhancing the quality and benefits of sleep” (priority 2020, dated 2025)
